# Measured values reported in patent US12539307B2, “Oral cannabinoid formulation comprising tocopheryl phosphates and long chain triglycerides or long chain fatty acids” (AVECHO BIOTECHNOLOGY LIMITED, priority 2020, dated 2026).
# How the values were obtained:
# [1] = In vitro intestinal digestion of carrier oil in fasted media (pH 6.5): solubilisation of CBD; assay type: in vitro ADME; details: with TPM
# Protocol: FIG. 1—Solubilisation of CBD during in vitro intestinal digestion of carrier oil (MCT, LCT/LCFA, or a mixture of MCT:LCT/LCFA) in fasted media (pH 6.5). Total lipid was 110 mg (100 mg carrier oil+10 mg CBD). Data are mean±SD, n=3. A. CBD concentration (mg) during digestion in MCT. B. CBD concentration (mg) during digestion in LCT/LCFA (Maisine CC). C. CBD concentration (mg) during digestion in a mixture of MCT:LCT/LCFA (Maisine CC)
# FIG. 2—Solubilisation of CBD in the presence of TPM during in vitro gastro-intestinal digestion of carrier oil (MCT, LCT/LCFA, or a mixture of MCT:LCT/LCFA) in fasted media. Total lipid was 110 mg (80-90 mg carrier oil+10 mg CBD+10-20 mg TPM). Data are mean±SD, n=3. A. CBD concentration (mg) during digestion in MCT with TPM. B. CBD concentration (mg) during digestion in LCT/LCFA (Maisine CC) with TPM. C. CBD concentration (mg) during digestion in a mixture of MCT:LCT/LCFA (Maisine CC) with TPM.
# FIG. 3—Solubilisation of CBD in the presence of TPM during in vitro digestion of carrier oil (MCT, LCT/LCFA, or a mixture of MCT:LCT/LCFA) in fasted media (pH 6.5). Total lipid was 110 mg (80-90 mg carrier oil+10 mg CBD+10-20 mg TPM). Data are mean±SD, n=3. A. CBD concentration (mg) during digestion in 3:1 MCT:LCT/LCFA, with TPM. B. CBD concentration (mg) during digestion in 1:1 MCT:LCT/LCFA, with TPM. C. CBD concentration (mg) during digestion in 1:3 MCT:LCT/LCFA, with TPM.
# In vitro digestion experiments were carried out to determine whether TPM in various carrier oils could increase the intestinal aqueous solubility of CBD. These experiments utilised a model of digestion in an intestinal environment at a pH of about 6.5. From the model, one can make determinations regarding the likely solubility of CBD or other cannabinoids such as THC in an aqueous intestinal fluid.
# [2] = In-vitro rat lipolysis: simulated rat gastric (0-30 min) and intestinal (30-90 min) digestion; assay type: in vitro ADME
# Protocol: FIG. 4. CBD solubility in-vitro in simulated gastric (0-30 min) and intestinal (30-90 min) conditions. Group 1: MCT. Group 2: 50 mg/ml TPM in MCT. Group 3: 100 mg/ml TPM in MCT. Group 4: 100 mg/ml TPM in 1:1 MCT/Maisine CC. Group 5: 200 mg/ml TPM in 1:1 MCT/Maisine CC.
# Further in-vitro lipolysis experiments were conducted to investigate CBD dispersibility and solubility in a model of the gastric and intestinal spaces. The effect of TPM and the formulation vehicle was assessed by comparison to CBD dissolved in an MCT vehicle at 100 mg/ml. A rat gastric-intestinal model was selected in order to have best correlation with a subsequent in-vivo pk study in rats.
# The in vitro lipolysis experiment simulated rat gastrointestinal conditions. The dispersion study was done in a lipolysis vessel containing simulated rat gastric medium at pH 2.4 and the gastric digestion of the formulations was assessed during 30 min. Afterwards, a concentrated bile buffer together with pancreatin was added to the gastric medium leading to the final concentrations which simulated the rat intestinal conditions. Subsequently, lipid digestion and drug solubilization was evaluated for 60 min.
# [3] = In vivo bioavailability (pk study) after a single oral gavage; parameters: species or system Sprague-Dawley rats; details: rats
# Protocol: Male Sprague-Dawley rats (301-353 g at the time of the study) are acclimatized for a minimum of seven days on standard feed with free access to water. The rats are housed under controlled environmental parameters (temperature: 22.1° C., relative humidity: 57%), and with reversed light cycle (12 h/12 h).
# The formulations are administered to each rat by oral gavage with a polyurethane feeding tube (Instech Laboratories Inc., Plymouth Meeting, USA). Blood samples (200 μL) are collected from the tail vein before dosing and at 0, 0.5, 1, 2, 4, 6, and 8 h after dosing. After the 6 h blood sample, the rats were given access to standard feed. At 23 h, the rats are euthanized by gassing and a blood sample is withdrawn from the heart immediately after. All blood samples were collected in ethylenediaminetetraacetic acid (EDTA) tripotassium salt dihydrate coated tubes (Sarstedt, Helsingborg, Sweden), and centrifuged at 10,000 RPM for 10 min. After centrifugation, the plasma was transferred to polypropylene microtubes and stored at −20° C. until LC-MS analysis.
compound,measurement,setting,value
"C=C(C)[C@@H]1CCC(C)=C[C@H]1c1c(O)cc(CCCCC)cc1O [CBD, cannabidiol]","aqueous CBD solubility during digestion, by MCT:LCT/LCFA ratio",[1]; vehicle 1:1 MCT:LCT/LCFA,best increase
same,"aqueous CBD solubility during digestion, by MCT:LCT/LCFA ratio","[1]; vehicle 1:3 MCT:LCT/LCFA, also significant CBD in immiscible oil phase",slight increase
same,"aqueous CBD solubility during digestion, by MCT:LCT/LCFA ratio",[1]; vehicle 3:1 MCT:LCT/LCFA,CBD precipitation
same,dispersibility and solubility of CBD in simulated gastric and intestinal spaces,[2]; addition of TPM to MCT containing CBD (100 mg/ml),increased
same,dispersibility and solubility of CBD in the intestinal space,[2]; addition of TPM to MCT:LCT/LCFA vehicles containing CBD (100 mg/ml),increased
same,increase of mean Cmax relative to control CBD formulation in MCT alone,[3]; addition of 50 mg/ml TPM to MCT carrier,~5 ×
same,increase of mean Cmax relative to control CBD formulation in MCT alone,[3]; addition of 100 mg/ml TPM to MCT carrier,~14 times
same,increase of mean Cmax relative to control CBD formulation in MCT alone,[3]; addition of 100 mg/ml TPM to MCT:LCT/LCFA carrier,~30 ×
same,increase of mean Cmax relative to control CBD formulation in MCT alone,[3]; addition of 200 mg/ml TPM to MCT:LCT/LCFA carrier,~40 times
